This passage reports IC50 results from patent US7531553B2, “Heterocyclic compounds and methods of use” (Amgen Inc., priority 2003, dated 2009).

For the assay, the system named is Human Umbilical Vein Endothelial cells. The assay can be described thus: HUVEC proliferation assay (VEGF-stimulated). It counts as cell-based. The settings on record: VEGF 50 ng/mL final, 72 h incubation, CyQuant dye, read-out: inhibited VEGF-stimulated HUVEC proliferation at a level (IC50). The procedure:
Human Umbilical Vein Endothelial cells are purchased from Clonetics, Inc., as cryopreserved cells harvested from a pool of donors. These cells, at passage 1, are thawed and expanded in EBM-2 complete medium, until passage 2 or 3. The cells are trypsinized, washed in DMEM+10% FBS+antibiotics, and spun at 1000 rpm for 10 min. Prior to centrifugation of the cells, a small amount is collected for a cell count. After centrifugation, the medium is discarded, and the cells are resuspended in the appropriate volume of DMEM+10% FBS+antibiotics to achieve a concentration of 3×10^5 cells/mL. Another cell count is performed to confirm the cell concentration. The cells are diluted to 3×10^4 cells/mL in DMEM+10% FBS+antibiotics, and 100 μL of cells are added to a 96-well plate. The cells are incubated at 37° C. for 22 h.
Prior to the completion of the incubation period, compound dilutions are prepared. Five-point, five-fold serial dilutions are prepared in DMSO, at concentrations 400-fold greater than the final concentrations desired. 2.5 μL of each compound dilution are diluted further in a total of 1 mL DMEM+10% FBS+antibiotics (400× dilution). Medium containing 0.25% DMSO is also prepared for the 0 μM compound sample. After 22-h, the medium is removed from the cells, and 100 μL of each compound dilution is added. The cells are incubated at 37° C. for 2-3 h.
During the compound pre-incubation period, the growth factors are diluted to the appropriate concentrations. Solutions of DMEM+10% FBS+antibiotics, containing either VEGF or bFGF at the following concentrations: 50, 10, 2, 0.4, 0.08, and 0 ng/mL are prepared. For the compound-treated cells, solutions of VEGF at 550 ng/mL or bFGF at 220 ng/mL for 50 ng/mL or 20 ng/mL final concentrations, respectively, are prepared since 10 μL of each will be added to the cells (110 μL final volume). At the appropriate time after adding the compounds, the growth factors are added. VEGF is added to one set of plates, while bFGF is added to another set of plates. For the growth factor control curves, the media on wells B4-G6 of plates 1 and 2 are replaced with media containing VEGF or bFGF at the varying concentrations (50-0 ng/mL). The cells are incubated at 37° C. for an additional 72 h.
At the completion of the 72 h incubation period, the medium is removed, and the cells are washed twice with PBS. After the second wash with PBS, the plates are tapped gently to remove excess PBS, and the cells are placed at −70° C. for at least 30 min. […] Raw data are collected and analyzed using a 4-parameter fit equation in XLFit. IC50 values are then determined.
With `CN1CCN(Cc2cc(Nc3nc4cc(Oc5ccnc6ccccc56)cc(Cl)c4o3)ccc2Cl)CC1` [Example 257, [4-Chloro-3-(4-methyl-piperazin-1-ylmethyl)-phenyl]-[7-chloro-5-(quinolin-4-yloxy)-benzoxazol-2-yl]-amine], the IC50 is less than 100 nM.

`COc1cc2nccc(Oc3ccc4oc(Nc5ccc(Cl)c(OC[C@@H]6CCCN6C)c5)nc4c3)c2cc1OC` [Example 259, S-[4-Chloro-3-(1-methylpyrrolidin-2-ylmethoxy)-phenyl]-[5-(6,7-dimethoxyquinolin-4-yloxy)-benzoxazol-2-yl]-amine]: the IC50 was less than 100 nM.

Consider `COc1cc2ncnc(Oc3ccc4oc(Nc5ccc(Cl)c(OC[C@@H]6CCCN6C)c5)nc4c3)c2cc1OC` [Example 263, S-[4-Chloro-3-(1-methyl-pyrrolidin-2-ylmethoxy)-phenyl]-[5-(6,7-dimethoxy-quinazolin-4-yloxy)-benzoxazol-2-yl]-amine], for which the IC50 was less than 100 nM.

Take `CN(C)C1CCN(Cc2cc(Nc3nc4cc(Oc5ccnc6[nH]ccc56)ccc4o3)ccc2Cl)C1` (centres unmarked) [Example 264, [4-Chloro-3-(3-dimethylamino-pyrrolidin-1-ylmethyl)-phenyl]-[5-(1H-pyrrolo[2,3-b]pyridin-4-yloxy)-benzoxazol-2-yl]-amine]: the IC50 is less than 100 nM.

As to `CN1CCC(COc2cc(Nc3nc4cc(Oc5ccnc6[nH]ccc56)ccc4o3)ccc2Cl)CC1` [Example 265, [4-Chloro-3-(1-methyl-piperidin-4-ylmethoxy)-phenyl]-[5-(1H-pyrrolo[2,3-b]pyridin-4-yloxy)-benzoxazol-2-yl]-amine], the IC50 was less than 100 nM.
